According to ChEMBL document CHEMBL4811294, “Synthesis and biological activity of conformationally restricted indole-based inhibitors of neurotropic alphavirus replication: Generation of a three-dimensional pharmacophore” (Bioorg Med Chem Lett, 2021):

Test system: not listed separately
Test: Antiviral activity against FMV infected in human BE2C cells assessed as reduction in virus-induced cytopathicity by measuring cell viability at 25 uM (reference value: 19.6 +/-4%)
Conditions: not given
O=C(NCCc1ccncc1)C1CCCN(C(=O)c2cc3ccccc3n2Cc2ccc(Cl)cc2)CC1 (stereo not drawn) showed an Activity of 22.9%.

Test system: not listed separately
Test: Cytotoxicity against golden hamster BSR-T7 cells assessed as reduction in cell viability measured after 18 to 24 hrs by MTT assay
Format: cell-based, Mesocricetus auratus, BSR-T7/5
Conditions: BSR-T7 cells, time 18-24 hrs
O=C(NCc1ccccc1)C1CCN(C(=O)c2cc3ccccc3n2Cc2ccc(Cl)cc2)CC1 showed a CC50 of over 100 µM.

Same assay, conditions: bsr-t7/5, time 18-24 hrs
Cc1cccc2cc(C(=O)N3CCC(C(=O)NCc4ccccc4)CC3)n(Cc3ccc(Cl)cc3)c12 gave a CC50 of over 100 µM.
With O=C(CC1CCN(C(=O)c2cc3ccccc3n2Cc2ccc(Cl)cc2)CC1)NCc1ccncc1 the CC50 was 77.3 µM.
In the case of O=C(NCCCc1ccccc1)C1CCN(C(=O)c2cc3ccccc3n2Cc2ccc(Cl)cc2)CC1, the CC50 is reported as over 50 µM.
Work on O=C(c1cc2ccccc2n1Cc1ccc(Cl)cc1)N1CCC(/C=C\CCc2ccncc2)CC1 yielded a CC50 of over 50 µM.
Work on O=C(c1cc2ccccc2n1Cc1ccc(Cl)cc1)N1CCC(C(=O)N2Cc3ccccc3C2)CC1 yielded a CC50 of over 100 µM.
Compound O=C(NCCc1ccncc1)C1=CCN(C(=O)c2cc3ccccc3n2Cc2ccc(Cl)cc2)CC1 has a CC50 of 74.2 µM.
Work on O=C(NCC1CCc2ccccc21)C1CCN(C(=O)c2cc3ccccc3n2Cc2ccc(Cl)cc2)CC1 (stereo not drawn) yielded a CC50 of over 100 µM.
In the case of Cc1c(C(=O)N2CCC(C(=O)NCc3ccccc3)CC2)n(Cc2ccc(Cl)cc2)c2ccccc12, the CC50 is reported as over 100 µM.
O=C(c1cc2ccccc2n1Cc1ccc(Cl)cc1)N1CCC(C(=O)N2CCc3ccccc32)CC1 showed a CC50 of over 100 µM.
With O=C(NCCc1ccncc1)[C@H]1[C@@H]2CCN(C(=O)c3cc4ccccc4n3Cc3ccc(Cl)cc3)C[C@@H]21 the CC50 was over 100 µM.
O=C(NCCc1ccncc1)N1CCN(C(=O)c2cc3ccccc3n2Cc2ccc(Cl)cc2)CC1 showed a CC50 of 78 µM.
Compound CN(CCc1ccncc1)C(=O)[C@@H]1C[C@H]2CC[C@@H](C1)N2C(=O)c1cc2ccccc2n1Cc1ccc(Cl)cc1 has a CC50 of 50.9 µM.
For O=C(NCCc1ccncc1)C1CC2(C1)CN(C(=O)c1cc3ccccc3n1Cc1ccc(Cl)cc1)C2, the CC50 was 56.5 µM.
In the case of O=C(NCCc1ccncc1)C1CCCN(C(=O)c2cc3ccccc3n2Cc2ccc(Cl)cc2)CC1 (stereo not drawn), the CC50 is reported as 41.1 µM.
In the case of O=C(c1cc2ccccc2n1Cc1ccc(Cl)cc1)N1CCC(C(=O)N2CCC(c3ccccc3)C2)CC1 (stereo not drawn), the CC50 is reported as over 100 µM.
Work on O=C(CCc1ccncc1)NC1CCN(C(=O)c2cc3ccccc3n2Cc2ccc(Cl)cc2)CC1 yielded a CC50 of 66.7 µM.
In the case of O=C(NC1Cc2ccccc2C1)C1CCN(C(=O)c2cc3ccccc3n2Cc2ccc(Cl)cc2)CC1, the CC50 is reported as over 100 µM.
O=C(NCC1Cc2ccccc2C1)C1CCN(C(=O)c2cc3ccccc3n2Cc2ccc(Cl)cc2)CC1 showed a CC50 of over 100 µM.
In the case of O=C(c1cc2ccccc2n1Cc1ccc(Cl)cc1)N1CC[C@H]2C(=O)N(CCc3ccncc3)C[C@H]2C1, the CC50 is reported as 61 µM.
For O=C(c1cc2ccccc2n1Cc1ccc(Cl)cc1)N1CCC(C(=O)N2CCCC2c2ccccc2)CC1 (stereo not drawn), the CC50 was over 100 µM.
O=C(NC1CCc2ccccc21)C1CCN(C(=O)c2cc3ccccc3n2Cc2ccc(Cl)cc2)CC1 (stereo not drawn) showed a CC50 of over 100 µM.
Compound CC1(C(=O)NCCc2ccncc2)CCN(C(=O)c2cc3ccccc3n2Cc2ccc(Cl)cc2)CC1 has a CC50 of over 50 µM.
Work on CC(NC(=O)C1CCN(C(=O)c2cc3ccccc3n2Cc2ccc(Cl)cc2)CC1)C1Cc2ccccc2C1 (racemic) yielded a CC50 of over 100 µM.

Test system: not listed separately
Test: Antiviral activity against FMV infected in human BE2C cells assessed as reduction in virus-induced cytopathicity by measuring cell viability at 5 uM (reference value: 19.6 +/-4%)
Conditions: not given
With O=C(NCCc1ccncc1)C1CCCN(C(=O)c2cc3ccccc3n2Cc2ccc(Cl)cc2)CC1 (stereo not drawn) the Activity was 36.1%.

Test system: Western equine encephalitis virus
Test: Antiviral activity against Western equine encephalitis virus infected in BSR-T7 cells assessed as inhibition of viral genome replicon replication measured after 18 to 24 hrs by luciferase assay
Format: functional, organism-based
Conditions: BSR-T7/5
Work on O=C(NCc1ccccc1)C1CCN(C(=O)c2cc3ccccc3n2Cc2ccc(Cl)cc2)CC1 yielded an IC50 of 30.6 µM.
In the case of O=C(c1cc2ccccc2n1Cc1ccc(Cl)cc1)N1CCC(/C=C/CCc2ccncc2)CC1, the IC50 is reported as over 50 µM.
In the case of Cc1cccc2cc(C(=O)N3CCC(C(=O)NCc4ccccc4)CC3)n(Cc3ccc(Cl)cc3)c12, the IC50 is reported as 61 µM.
O=C(CC1CCN(C(=O)c2cc3ccccc3n2Cc2ccc(Cl)cc2)CC1)NCc1ccncc1 gave an IC50 of 24.7 µM.
O=C(NCCCc1ccccc1)C1CCN(C(=O)c2cc3ccccc3n2Cc2ccc(Cl)cc2)CC1 showed an IC50 of over 100 µM.
O=C(c1cc2ccccc2n1Cc1ccc(Cl)cc1)N1CCC(/C=C\CCc2ccncc2)CC1 showed an IC50 of over 50 µM.
Work on O=C(c1cc2ccccc2n1Cc1ccc(Cl)cc1)N1CCC(C(=O)N2Cc3ccccc3C2)CC1 yielded an IC50 of over 100 µM.
Work on O=C(NCCc1ccncc1)C1=CCN(C(=O)c2cc3ccccc3n2Cc2ccc(Cl)cc2)CC1 yielded an IC50 of 3.9 µM.
In the case of O=C(NCC1CCc2ccccc21)C1CCN(C(=O)c2cc3ccccc3n2Cc2ccc(Cl)cc2)CC1 (stereo not drawn), the IC50 is reported as 7.1 µM.
Cc1c(C(=O)N2CCC(C(=O)NCc3ccccc3)CC2)n(Cc2ccc(Cl)cc2)c2ccccc12 showed an IC50 of over 100 µM.
With O=C(c1cc2ccccc2n1Cc1ccc(Cl)cc1)N1CCC(C(=O)N2CCc3ccccc32)CC1 the IC50 was over 100 µM.
Compound O=C(NCCc1ccncc1)[C@H]1[C@@H]2CCN(C(=O)c3cc4ccccc4n3Cc3ccc(Cl)cc3)C[C@@H]21 has an IC50 of 24.6 µM.
Compound O=C(NCCc1ccncc1)N1CCN(C(=O)c2cc3ccccc3n2Cc2ccc(Cl)cc2)CC1 has an IC50 of 24.4 µM.
CN(CCc1ccncc1)C(=O)[C@@H]1C[C@H]2CC[C@@H](C1)N2C(=O)c1cc2ccccc2n1Cc1ccc(Cl)cc1 gave an IC50 of 0.96 µM.
Work on O=C(NCCc1ccncc1)C1CC2(C1)CN(C(=O)c1cc3ccccc3n1Cc1ccc(Cl)cc1)C2 yielded an IC50 of 10.9 µM.
In the case of O=C(NCCc1ccncc1)C1CCCN(C(=O)c2cc3ccccc3n2Cc2ccc(Cl)cc2)CC1 (stereo not drawn), the IC50 is reported as 0.49 µM.
O=C(c1cc2ccccc2n1Cc1ccc(Cl)cc1)N1CCC(C(=O)N2CCC(c3ccccc3)C2)CC1 (stereo not drawn) showed an IC50 of over 100 µM.
O=C(CCc1ccncc1)NC1CCN(C(=O)c2cc3ccccc3n2Cc2ccc(Cl)cc2)CC1 showed an IC50 of 17.6 µM.
With O=C(NC1Cc2ccccc2C1)C1CCN(C(=O)c2cc3ccccc3n2Cc2ccc(Cl)cc2)CC1 the IC50 was over 100 µM.
Work on O=C(NCC1Cc2ccccc2C1)C1CCN(C(=O)c2cc3ccccc3n2Cc2ccc(Cl)cc2)CC1 yielded an IC50 of 0.53 µM.
With O=C(c1cc2ccccc2n1Cc1ccc(Cl)cc1)N1CC[C@H]2C(=O)N(CCc3ccncc3)C[C@H]2C1 the IC50 was 24.4 µM.
For O=C(c1cc2ccccc2n1Cc1ccc(Cl)cc1)N1CCC(C(=O)N2CCCC2c2ccccc2)CC1 (stereo not drawn), the IC50 was over 100 µM.
O=C(NC1CCc2ccccc21)C1CCN(C(=O)c2cc3ccccc3n2Cc2ccc(Cl)cc2)CC1 (stereo not drawn) showed an IC50 of over 100 µM.
For CC1(C(=O)NCCc2ccncc2)CCN(C(=O)c2cc3ccccc3n2Cc2ccc(Cl)cc2)CC1, the IC50 was over 50 µM.
In the case of CC(NC(=O)C1CCN(C(=O)c2cc3ccccc3n2Cc2ccc(Cl)cc2)CC1)C1Cc2ccccc2C1 (racemic), the IC50 is reported as 1.7 µM.

Test system: not listed separately
Test: Antiviral activity against FMV infected in human BE2C cells assessed as reduction in virus-induced cytopathicity at 5 uM relative to control
Conditions: not given
With O=C(NCCc1ccncc1)C1CCCN(C(=O)c2cc3ccccc3n2Cc2ccc(Cl)cc2)CC1 (stereo not drawn) the “fold change (FC)” value was 2.

Test system: not listed separately
Test: Antiviral activity against FMV infected in human BE2C cells assessed as reduction in virus-induced cytopathicity at 25 uM relative to control
Conditions: not given
With O=C(NCCc1ccncc1)C1CCN(C(=O)c2cc3ccccc3n2Cc2ccc(Cl)cc2)CC1 the “fold change (FC)” value was 2.
